Laboratory results published in patent publication US6673566B1 (priority 2002, dated 2004).
Entries after “also recorded” stand apart in the source; their conditions may differ.

Assays:
[1] = test system: PBMC from Mycobacterium bovis-infected white-tailed deer; format: cell-based
[2] = test system: white-tailed deer adherent peripheral blood mononuclear cells; assay: Nitrite production (Griess reaction) by white-tailed deer monocyte-derived macrophages stimulated with M. haemolytica LPS; format: cell-based; settings: cells stimulated with LPS in the presence of L-NMMA (1.15 mM)
Protocol: Monocytes were isolated from buffy coat fractions of peripheral blood of non-infected deer by adherence in 25 cm^2 flasks at 37° C. for 1 hr. Cells were cultured for 2 wk at 37° C. with 5% CO2 in RPMI 1640 (Gibco, Invitrogen Life Technologies, Frederick, Md., USA) supplemented with L-glutamine, penicillin, streptomycin, 2-ME, 10% heat-inactivated fetal calf serum, and 10% heat-inactivated white-tailed deer serum. Medium was changed every 3-4 days during the culture period. […]
Nitrite is the stable oxidation product of NO and the amount of nitrite within culture supernatants is indicative of the amount of NO produced by cells in culture. Nitrite was measured using the Griess reaction (Rajaraman et al., 1998, Effect of vitamins A and E on nitric oxide production by blood mononuclear leukocytes from neonatal calves fed milk replacer, Journal of Dairy Science, 81:3,278-3,285) performed in 96-well microtiter plates (Immunolon 2, Dynatech Laboratories, Inc., Chantilly, Va., USA). […] Absorbencies of test and standard samples at 550 nm were measured using an automated ELISA plate reader (Molecular Devices, Menlo Park, Calif., USA). […]
Data were analyzed by one-way analysis of variance followed by Tukey-Kramer multiple comparisons test. […]

CNC(=N)NCCC[C@H](N)C(=O)O [L-NMMA, N^G-monomethyl-L-arginine]
Effect of L-NMMA on antigen-stimulated nitrite production [1]: inhibited; also recorded: ablated this response; also recorded: abrogated | Nitrite levels versus non-stimulated cultures [2]: did not differ
